Measurements reported in patent US20240294914A1, “COMPOSITIONS AND METHODS FOR TREATING HEPATITIS B VIRUS INFECTION” (priority 2021, published 2024).

What was measured:
HBV cccDNA [1] = assay: Base editing of HBV cccDNA in primary human hepatocytes (HBV-PHH); format: cell-based, Hepatitis B virus; settings: PHH, BE4 + gRNA37 + gRNA40
Excerpt: Base editor systems comparing guide RNAs evaluated in Example 1 were subsequently tested for anti-viral and editing efficacy using the Hepatitis B virus-primary human hepatocyte (HBV-PHH) system. Cells were transfected with the guide RNAs and mRNAs encoding the base editor as described in Example 1. […] Guide RNAs ABE-133, MSPbeam94, and ABE-85 were associated with a 70-80% reduction of HBV DNA as compared to controls. The guide RNAs PolyA-NGC1 and PolyA-NGC2 were associated with high editing followed by 90% efficacy in reduction of HbeAg.
(§1) Having identified gRNA37 and gRNA40 as effective gRNAs, the antiviral efficacy of a base editor system containing BE4, gRNA37 and gRNA40 (i.e., multiplexing gRNAs) was evaluated, FIGS. 8-10. It was determined that the base editor system multiplexed with the two gRNAs was associated with a reduction of HBV viral parameters in HepG2-NTCP cells, see FIG. 9. […] For the evaluation of editing of cccDNA, the cccDNA was enriched via Hirt extraction and ExoI/ExoIII nuclease treatment to remove rcDNA (relaxed circular DNA). Throughout the Examples provided herein, editing of cccDNA was evaluated using next generation sequencing completed using cccDNA enriched in this way.
The design of the experiments is described schematically in FIG. 14. Primary human hepatocyte (PHH) cells were infected with HBV at day 0. At days 4 and 11, the cells were transfected with mRNA encoding BE4 and with gRNA37 and gRNA40. Measurements of HBV DNA were taken over time, and measurements of HBsAg, HBeAG, HBV total DNA, 3.5 kb RNA, and cccDNA editing were taken at day 25. The experiments were carried out using a PHH co-culture system available from PhoenixBio. The PHH co-culture system maintained hepatocyte differentiation and metabolic activity for over 30 days. The HBV infection in the cells was persistent and a cccDNA level was maintained.
The design of the experiments is described schematically in FIG. 18. Primary human hepatocyte (PHH) cells were infected with HBV at day 0, at day 4 an 8-day. Treatment with lamivudine commenced (which included a 3-day pretreatment period within the 8-day total), and cells were transfected with mRNA encoding BE4 and the gRNAs gRNA37 and gRNA40 at days 7 and 14. HBV DNA levels were measured over time, and additional HBV markers were measured at day 21.
Primary hepatocytes (PHH) co-cultures infected with HBV were used to test antiviral efficacy of base editing systems. Primary hepatocyte co-culture (PHH) infected with HBV virus is a clinically relevant system for assessing anti-viral activity of base editing systems. The base editing reagents (mRNA encoding a base editor(s) and synthetic gRNA) were transfected via lipofection twice over the course of two weeks. The first transfection was performed about 3, 4, or 7 days after infection (days post infection (dpi)). Not being bound by theory, this 3-to-7-day period ensured that the cccDNA was completely formed at the time of the transfection. The second transfection was at about 7, 10, 11, or 14 days after infection. Extracellular parameters (e.g., HBsAg, HBeAg, and HBV DNA) were monitored over the course of the experiment (including the end of the experiment) and intracellular parameters (HBV DNA, viral RNA, and editing) were measured at the end of the experiment. Cells were lysed at the termination of the experiment (e.g., at 15, 17, 21, or 25 days).
Transfection details: RNA format, 800 ng total RNA per well in a 24 well plate (600 ng base editor-encoding mRNA+200 ng gRNA) transfected via lipofection (lipofectamin messengerMax, thermofisher Scientific) according to the vendor protocol.

HBV cccDNA [2] = assay: cccDNA editing in HBV-infected HepG2-NTCP cells (NGS on enriched cccDNA); format: cell-based, Hepatitis B virus; settings: for improvement in base editing efficiency by lamivudine pretreatment: HepG2-NTCP, 3-day pretreatment (8-day total), BE4 mRNA + gRNAs 37 and 40
Excerpt: Experiments were completed using guide RNA's listed in Table 1 to identify combinations of guide RNA's effective in treating HBV-infected cells. HepG2-NTCP cells were transfected with mRNA encoding BE4 and a guide RNA(s) selected from gRNA12, gRNA37, gRNA19, gRNA190, and gRNA40. HepG2-NTCP cells are described in Sun, et al. “NTCP-Reconstituted In Vitro HBV Infection System,” Methods Mol. Biol. 1540:1-14 (2017), DOI: 10.1007/978-1-4939-6700-1_1, the disclosure of which is incorporated herein by reference in its entirety for all purposes. Cells were infected at day 0 with HBV and then transfected with the mRNA and gRNA(s) at day 4, see FIG. 6. Measurements of HBsAg, HBeAg, total HBV DNA, and 3.5 kb viral DNA were taken at day 14, see FIG. 6. The guide RNA, gRNA37, targeted HBsAg and gRNA40 targeted the HBV core protein, see FIG. 7. The use of gRNA37 was associated with a reduction in HBsAg levels and the use of gRNA40 was associated with a reduction in HBeAg levels, see FIG. 8. Also, each of gRNA37 and gRNA40 was associated with a lowering of total HBV DNA and 3.5 kb RNA levels.
as §1
HepG2-NTCP cells were infected with HBV at day 0, at day 4 an 8-day treatment with lamivudine commenced (which included a 3-day pretreatment period within the 8-day total), at day 7 cells were transfected with mRNA encoding BE4 and gRNAs 37 and 40, and measurements were taken at day 15. […]

Hepatitis B virus [3] = assay: Antiviral efficacy in HBV-infected primary human hepatocytes (HBV-PHH): HBsAg, HBeAg, HBV DNA, 3.5 kb RNA, rebound; format: cell-based; settings: PHH co-culture, transfection at days 4 and 11; lamivudine 8 days then discontinued
HBV-infected cells = assay: Base editors with reduced off-target activity (BE4, ppApo, rrA3F): editing and HBsAg in HBV-infected cells; format: cell-based, Hepatitis B virus; settings: base editor in combination with gRNA37 and gRNA40
Excerpt: FIG. 22 provides a bar graph showing base editing at the sites targeted by gRNA37 and gRNA40. Cells were contacted with BE4, ppApo, or rrA3F in combination with gRNA37 and gRNA40.
Thus, all three base editor systems had antiviral activity. The negative control (HBV) was untreated cells and the control (contr) was gRNA targeting the PCSK9 gene.
It may be advantageous to use base editors that have reduced off-target activity and lower non-specific effects (e.g., as compared to BE4) without compromising editing efficiencies. Thus, experiments were undertaken to evaluate the antiviral efficacy of base editor systems containing ppApo or rrA3F, which are described in Yu, et al. “Cytoxine base editors with minimized unguided DNA and RNA off-target events and high on-target activity,” Nature Communications, 11:2052 (2020), DOI: 10.1038/s41467-020-15887-5, the disclosure of which is incorporated herein by reference in its entirety for all purposes.

[4] = system: naturally integrated HBV genome in PLC/PRF/5; assay: Editing of naturally integrated HBV genome in PLC/PRF/5 cells; format: cell-based, Hepatitis B virus; settings: BE4 + gRNA
Excerpt: This editing reduced HBsAg secretion (FIG. 34B).

HBsAg = settings: PLC/PRF/5 cells, BE4 + gRNA, 6th day post-transfection
Hepatitis B virus [5] = assay: HBV minicircle (HBVcircle) mouse model: serum HBsAg, HBeAg, HBV DNA after LNP injection; format: in vivo
Excerpt: Having established the efficacy of these base editing reagents in vitro, experiments were then undertaken to evaluate these same base editing reagents for antiviral efficacy in vivo using the HBV minicircle mouse model. […] After establishing HBV viral replication, hepatic delivery of the base editing reagents was achieved via systemic administration of lipid nanoparticles (LNPs) formulated with the following base editing reagents: CBE mRNA and HBV-targeting gRNAs (e.g., gRNA37 and gRNA40 (see Table 1)). The mice were administered a combination of base editors, where the combination was either gRNA37 and gRNA40 or gRNA37-HM and gRNA40-HM. The guides gRNA37-HM and gRNA40-HM each included heavily modified(HM) scafolds (see Table 1).
Table 23 below provides a summary of the experimental design used to evaluate the base editing reagents in vivo. The mice contained an HBVcircle polynucleotide that enabled HBV replication in vivo. See, for example Yan et al., J. Hepatol 2017 66:1149-1157 for a description of an exemplary mouse model. The mice were administered lipid nanoparticles (BL4 LNP) containing mRNA encoding BE4 (a cytidine base editor) and either the guide RNAs gRNA37 and gRNA40 or the guide RNAs gRNA37-HM and gRNA-40-HM containing a scaffold with heavy modifications (HM). […] HBsAg, HbeAg, and HBV DNA levels in serum were measured weekly (FIGS. 24A-24C and 25A-25C). […]

Question: With `Nc1ccn([C@@H]2CS[C@H](CO)O2)c(=O)n1` [lamivudine, 2′,3′-dideoxy-3′-thiacytidine 4-Amino-1-[(2R,5S)-2-(hydroxymethyl)-1,3-oxathiolan-5-yl]-1,2-dihydropyrimidin-2-one] as the compound, how does the “editing in primary hepatocytes with lamivudine pretreatment” value (HBV cccDNA [1]) read?
Answer: improved editing

Question: What about the “improvement in base editing efficiency by lamivudine pretreatment” value (HBV cccDNA [2]) of the same compound?
Answer: about 20%

Question: And the “improvement in base editing efficiency by lamivudine pretreatment” value (HBV cccDNA [2]; listed as Lamivudine)?
Answer: 20%

Question: And the “functional editing by NGS on cccDNA enriched samples in the presence of 3TC” value (HBV cccDNA [2]; gRNA B+gRNA H with BE4)?
Answer: Higher editing efficiency

Question: And the “HBV rebound (extracellular HBV DNA, qPCR in supernatant)” value (Hepatitis B virus [3])?
Answer: rebounded

Question: What does the source list for “BE4: cytidine base editor polypeptide, SEQ ID NO: 10832, delivered as mRNA”?
Answer: HBsAg levels (HBV-infected cells): reductions; editing efficiencies at the sites targeted by gRNA37 and gRNA40 (HBV-infected cells): comparable editing efficiencies

Question: Which “editing of the naturally integrated HBV genome” value [4] does the source give for “MSPbeam37-PLC: guide RNA with spacer sequence SEQ ID NO. 10834, single nucleobase change relative to MSPbeam37 (guide GAAAGCCCAAGAUGAUGGGA; guide RNA scaffold, chemistry not fully specified)” here?
Answer: edited

Question: What about the “extracellular HBsAg (secretion)” value (HBsAg) of the same compound?
Answer: reduced

Question: For `C=C1[C@H](CO)[C@@H](O)C[C@@H]1n1cnc2c(=O)[nH]c(N)nc21` [Entecavir], which “HBV rebound (serum HBV DNA)” value (Hepatitis B virus [5]; Entecavir 0.03 mg/kg orally for two weeks then discontinued, LNP 2 mg/kg) is on record?
Answer: rebounds

Question: And the “reduction in serum levels of HBV DNA at day 21” value (Hepatitis B virus [5]; Entecavir orally daily days 1-14, base editing reagents day 1 or days 1 and 14)?
Answer: approximately 2 log
